# Values of other authors as cited in patent US12357667B2, “Nutraceutical formulations to prevent, treat, and inhibit excess cytokines, SARS-CoV-2 spike proteins, and mRNA vaccine spike proteins” (priority 2021, dated 2025).
# Where a name gives a salt, the structure may show the parent alone.
# Assays:
# SARS-CoV-2 [1] = test system: SARS-CoV-2
# SARS-CoV-2 [2] = settings: structure-based molecular docking
# SARS-CoV-2 [3] = settings: lung epithelial cells
# [4] = 6 mg/day for 4 weeks, active young men
# [5] = hyperlipidemic rats
# [6] = test system: mouse hepatitis virus (MHV); settings: A549-MHVR cells, non-toxic conditions; read-out: EC50, suppression of MHV replication
# SARS-CoV-2 [7] = settings: patients previously taking CBD relative to matched pairs or the general population
# SARS-CoV-2 [8] = test system: SARS-CoV-2; remark: listed apart in the source
# [9] = biological target: cannabinoid G-protein coupled receptor CB2 (Homo sapiens, UniProt P34972)
# CB1 = CB1 (Homo sapiens, UniProt P21554)
# [10] = test system: human influenza viruses (H5N1, Vietnam/VN1203 strain)
# RBD and ACE2 = RBD and ACE2 (Severe acute respiratory syndrome coronavirus 2, UniProt P0DTC2)
# influenza = settings: 6-month preventive administration
# pseudotyped SARS-CoV-2 = settings: VeroE6/TMPRSS2 cells
# [11] = biological target: T1, 3-chymotrypsin-like protease (3CLpro) (Severe acute respiratory syndrome coronavirus 2, UniProt P0DTD1)
# T1 construct: 3-chymotrypsin-like protease (3CLpro)
# SARS-CoV-2 viral S-spike = SARS-CoV-2 viral S-spike (Severe acute respiratory syndrome coronavirus 2, UniProt P0DTC2); settings: supercomputer modeling; out of 20 top performers
# [12] = biological target: T2, papain-like protease (PLpro) (Severe acute respiratory syndrome coronavirus 2, UniProt P0DTD1)
# T2 construct: papain-like protease (PLpro)
# [13] = not given; remark: listed apart in the source
# [14] = test system: multiple strains of SARS-CoV-2, including Delta and Omicron
# [15] = test system: respiratory syncytial virus; settings: respiratory syncytial virus-infected mice
# blood coagulation = settings: in vitro coagulation assays
# [16] = test system: pseudovirus expressing the SARS-CoV-2 spike protein
# Furin = Furin (Homo sapiens, UniProt P09958)
# main proteases (6Y2E) = biological target: T3, main proteases (6Y2E) (Severe acute respiratory syndrome coronavirus 2, UniProt P0DTD1); settings: 6Y2E active sites
# T3 construct: main proteases (6LU7 and 6Y2E)
# [17] = test system: glutamate-cysteine ligase; design: dose or concentration left out as unconfirmed; settings: zinc, ARPE-19 cells
# SARS-CoV-2 [18] = test system: SARS-CoV-2; remark: listed apart in the source
# cannabinoid G-protein coupled receptor CB2, sequence (P34972 whole entry): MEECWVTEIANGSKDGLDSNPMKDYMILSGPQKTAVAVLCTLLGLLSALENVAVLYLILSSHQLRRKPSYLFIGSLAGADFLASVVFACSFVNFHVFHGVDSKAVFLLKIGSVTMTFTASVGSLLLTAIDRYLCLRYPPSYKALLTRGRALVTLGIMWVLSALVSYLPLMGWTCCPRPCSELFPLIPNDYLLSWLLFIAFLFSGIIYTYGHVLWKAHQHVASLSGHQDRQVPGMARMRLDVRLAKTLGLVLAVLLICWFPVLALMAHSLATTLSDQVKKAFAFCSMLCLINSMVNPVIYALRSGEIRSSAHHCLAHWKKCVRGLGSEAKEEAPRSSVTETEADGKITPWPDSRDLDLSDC
# Furin, sequence (P09958 108-794, species assumed): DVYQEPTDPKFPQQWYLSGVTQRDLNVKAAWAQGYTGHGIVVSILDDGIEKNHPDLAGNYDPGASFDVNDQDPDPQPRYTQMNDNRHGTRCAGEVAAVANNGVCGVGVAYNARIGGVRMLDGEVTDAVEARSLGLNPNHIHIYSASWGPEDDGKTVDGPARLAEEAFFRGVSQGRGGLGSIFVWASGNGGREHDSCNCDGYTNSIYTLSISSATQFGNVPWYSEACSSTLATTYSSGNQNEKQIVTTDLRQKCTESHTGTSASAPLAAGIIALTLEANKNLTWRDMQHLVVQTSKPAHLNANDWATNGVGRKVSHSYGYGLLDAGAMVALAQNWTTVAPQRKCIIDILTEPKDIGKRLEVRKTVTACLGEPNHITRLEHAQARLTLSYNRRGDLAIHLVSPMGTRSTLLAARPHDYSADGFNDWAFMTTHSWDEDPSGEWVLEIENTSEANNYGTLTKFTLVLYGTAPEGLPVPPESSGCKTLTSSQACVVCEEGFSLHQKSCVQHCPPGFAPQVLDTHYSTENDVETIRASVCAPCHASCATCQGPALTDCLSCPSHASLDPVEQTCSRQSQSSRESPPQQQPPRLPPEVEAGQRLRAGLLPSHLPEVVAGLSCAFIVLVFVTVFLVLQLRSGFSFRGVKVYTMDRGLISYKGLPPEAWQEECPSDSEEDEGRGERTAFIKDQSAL
# CB1, sequence (P21554 whole entry, species assumed): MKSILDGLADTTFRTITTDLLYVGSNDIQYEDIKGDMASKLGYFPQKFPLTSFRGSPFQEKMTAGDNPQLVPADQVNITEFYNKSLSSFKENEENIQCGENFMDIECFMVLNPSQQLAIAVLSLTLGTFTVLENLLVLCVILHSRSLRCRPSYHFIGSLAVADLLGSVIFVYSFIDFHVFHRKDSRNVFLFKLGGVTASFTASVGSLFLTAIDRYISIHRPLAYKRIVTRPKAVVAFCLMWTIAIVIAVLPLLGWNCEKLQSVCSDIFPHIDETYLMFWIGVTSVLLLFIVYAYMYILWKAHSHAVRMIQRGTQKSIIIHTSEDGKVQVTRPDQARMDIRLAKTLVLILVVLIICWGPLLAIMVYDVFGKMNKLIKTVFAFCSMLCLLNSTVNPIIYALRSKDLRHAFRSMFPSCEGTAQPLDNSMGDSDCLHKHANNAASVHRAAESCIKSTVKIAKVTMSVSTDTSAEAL
compound,measurement,setting,value
C=C(CC(=O)OCCCCCCCC)C(=O)O [4-octyl-itaconate],replication of SARS-CoV-2 in vitro,SARS-CoV-2 [1],inhibited replication
CN1c2c(nc(N)[nH]c2=O)NCC1CNc1ccc(C(=O)N[C@@H](CCC(=O)O)C(=O)O)cc1 (stereo partly shown) [5-methyl tetrahydrofolic acid],binding affinities against the SARS-CoV-2,SARS-CoV-2 [2],strong and stable binding affinities
"C=C(C)[C@@H]1CCC(CO)=C[C@H]1c1c(O)cc(CCCCC)cc1O [7-0H-CBD, 7-OH-CBD]",block of SARS-CoV-2 replication,SARS-CoV-2 [3],potently block
CC1=C(/C=C/C(C)=C/C=C/C(C)=C/C=C/C=C(C)/C=C/C=C(C)/C=C/C2=C(C)C(=O)[C@@H](O)CC2(C)C)C(C)(C)C[C@H](O)C1=O [Astaxanthin],Glutathione higher compared with placebo,[4],~7%
same,oxidative stress markers or substrate utilization during exercise,[4],did not affect
same,"Glutathione, whole blood",[4]; fasting blood sample,"1,233±133 μM"
same,"coagulation, fibrinolytic activity and platelet aggregation",[5],"inhibit coagulation, increase fibrinolytic activity and reduce platelet aggregation"
"C=C(C)[C@@H]1CCC(C)=C[C@H]1c1c(O)cc(CCCCC)cc1O [CBD, Cannabidiol]",EC50,[6],~5 µM
same,block of SARS-CoV-2 replication,SARS-CoV-2 [3],potently block
same,SARS-CoV-2 infection incidence,SARS-CoV-2 [7],significantly lower
same,inhibition of SARS-CoV-2 replication,SARS-CoV-2 [8]; Vero E6 monkey kidney epithelial cells,inhibited SARS-CoV-2 replication
same,toxicity,SARS-CoV-2 [8]; at the effective doses,No toxicity
same,"IL-1β, IL-6, TNF and IL-18","Caco-2 cells; ELISA, CBD 10-9-10-7 M",parallel inhibition
same,transepithelial electrical resistance (TEER),Caco-2 cells; following CBD treatment,restoration
same,"proinflammatory markers triggered by Spike Protein (TLR-4, ACE-2, RhoA-GTPase, NLRP3, Caspase-1)","Caco-2 cells; immunoblot, CBD 10-9-10-7 M",reduce all the analyzed proinflammatory markers
"C=C(C)[C@@H]1CCC(C)=C[C@H]1c1c(O)cc(CCC)cc1O [CBDV, cannabidivarin, reference compound]",levels of interleukin-6 (IL-6) and lactate dehydrogenase (LDH),astrocytes,attenuated levels
"CCCCCc1cc(O)c(C/C=C(\C)CCC=C(C)C)c(O)c1 [CBG, Cannabigerol]",levels of DNA damage proteins,astrocytes,decreased levels
same,levels of interleukin-6 (IL-6) and lactate dehydrogenase (LDH),astrocytes,attenuated levels
CCCCCc1cc(O)c2c(c1)OC(C)(C)c1ccc(C)cc1-2 [Cannabinol],binding to CB2,[9],preferentially binds
same,affinity for CB1,CB1,minimal affinity
"CC(=O)N[C@@H](CS)C(=O)O [N-acetylcysteine, reference compound]",spike-mediated cell-cell fusion,SARS-CoV-2 spike,inhibited
same,inhibition of H5N1 replication,[10],dose dependent manner
same,"production of pro-inflammatory cytokines (IL-8, CXCL10, CCL5 and IL-6)",[10],reduced the production
same,in vitro binding of RBD and ACE2,RBD and ACE2,inhibited
same,incidence of clinically apparent influenza and influenza-like episodes,influenza,significantly reduced
same,pseudotyped viral infection,pseudotyped SARS-CoV-2,inhibited
O=c1c(O)c(-c2ccc(O)c(O)c2)oc2cc(O)cc(O)c12 [Quercetin],docking binding energy,[11],-6.25 kcal/mol
same,rank for inhibition of SARS-CoV-2 viral S-spike binding to cells,SARS-CoV-2 viral S-spike,fifth
same,solubility,,low solubility
same,docking binding energy,[12],-4.62 kcal/mol
same,oral absorption / systemic bioavailability,[13],reduced oral absorption
"C[S+]([O-])CCCCN=C=S (stereo not shown) [SFN, Sulforaphane]",toxicity in cell culture,[14],limited toxicity
same,antiviral activity,"[14]; multiple strains of SARS-CoV-2, including Delta and Omicron",potent antiviral activity
same,lung viral replication and virus-induced inflammation,[15],significantly limited
same,antiviral activity,HCoV-OC43,potent antiviral activity
CC1=CC(=O)C(C(C)C)=CC1=O [Thymoquinone],anticoagulant activity,blood coagulation,possesses anticoagulant activity
C=C(C)[C@@H]1CCC(C)=C[C@H]1c1c(O)cc(CCCCC)c(C(=O)O)c1O [cannabidiolic acid],entry of live SARS-CoV-2 into cells,live SARS-CoV-2,prevented entry
same,infection of human epithelial cells by pseudovirus,[16],prevented infection
CCCCCc1cc(O)c(C/C=C(\C)CCC=C(C)C)c(O)c1C(=O)O [cannabigerolic acid],entry of live SARS-CoV-2 into cells,live SARS-CoV-2,prevented entry
same,infection of human epithelial cells by pseudovirus,[16],prevented infection
"COc1cc(/C=C/C(=O)CC(=O)/C=C/c2ccc(O)c(OC)c2)ccc1O [curcumin, diferuloylmethane]",oral absorption / systemic bioavailability,[13],minimal absorption
COC(=O)/C=C/C(=O)OC [dimethyl fumarate],replication of SARS-CoV-2 in vitro,SARS-CoV-2 [1],inhibited replication
Nc1nc2ncc(CNc3ccc(C(=O)N[C@@H](CCC(=O)O)C(=O)O)cc3)nc2c(=O)[nH]1 [folic acid],furin inhibition,Furin,inhibit furin
same,binding affinities against the SARS-CoV-2,SARS-CoV-2 [2],strong and stable binding affinities
"N[C@@H](CCC(=O)N[C@@H](CS)C(=O)NCC(=O)O)C(=O)O [glutathione, γ-glutamyl cysteinyl glycine]",spike-mediated cell-cell fusion,SARS-CoV-2 spike,inhibited
same,in vitro binding of RBD and ACE2,RBD and ACE2,inhibited
same,pseudotyped viral infection,pseudotyped SARS-CoV-2,inhibited
same,oral absorption / systemic bioavailability,[13],poor
CC1(C)CC[C@]2(C(=O)O)CC[C@]3(C)C(=CC[C@@H]4[C@@]5(C)CC[C@H](O)[C@@](C)(CO)[C@@H]5CC[C@]43C)[C@@H]2C1 [hederagenin],docking binding score with 6Y2E,main proteases (6Y2E),less than saquinavir
Cc1c(-c2cnccn2)ssc1=S [oltipraz],ACE2 levels,ACE2,reduces ACE2 levels
Nc1nc2c(c(=O)[nH]1)NC(CNc1ccc(C(=O)N[C@@H](CCC(=O)O)C(=O)O)cc1)CN2 (stereo partly shown) [tetrahydrofolic acid],binding affinities against the SARS-CoV-2,SARS-CoV-2 [2],strong and stable binding affinities
[Zn] [zinc],mRNA levels of glutamate-cysteine ligase,[17],upregulates
bromelain,infection of VeroE6 cells by SARS-CoV-2,SARS-CoV-2 [18],inhibits infection
same,toxicity,PGE-2,very low toxicity
same,effect on PGE-2 inhibition,PGE-2; compared with prednisone and aspirin,exceeds that of prednisone and aspirin
